# From ChEMBL document CHEMBL1201862, “PubChem BioAssay data set” (2004)
#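 Results reflect a 48-hour exposure of cells in 96-well plates to compound at five concentrations. Abbreviation: GI50, concentration required for 50% inhibition of growth.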 The source made the active and inactive calls. Cut-off read from the data, not from the text of the source: active = GI50 up to about 1.1 µM and inactive = higher.
# Experiments:
# Assay in all cases: NCI-60 cell line screen, 48 h
# A549 = tested on: A549
# SK-MEL-2 = tested on: SK-MEL-2
# SN12C = tested on: SN12C
# SF-539 = tested on: SF-539
# NCI/ADR-RES = tested on: NCI/ADR-RES
# LOX IMVI = tested on: LOX IMVI
# HCC 2998 = tested on: HCC 2998
# MCF7 = tested on: MCF7
# NCI-H460 = tested on: NCI-H460
# BT-549 = tested on: BT-549
# COLO 205 = tested on: COLO 205
# OVCAR-5 = tested on: OVCAR-5
# SF-268 = tested on: SF-268
# UACC-257 = tested on: UACC-257
# CAKI-1 = tested on: CAKI-1
# U-251 = tested on: U-251
# HCT-15 = tested on: HCT-15
# SK-OV-3 = tested on: SK-OV-3
# NCI-H23 = tested on: NCI-H23
# Malme-3M = tested on: Malme-3M
SMILES,GI50 (A549),GI50 (SK-MEL-2),GI50 (SN12C),GI50 (SF-539),GI50 (NCI/ADR-RES),GI50 (LOX IMVI),GI50 (HCC 2998),GI50 (MCF7),GI50 (NCI-H460),GI50 (BT-549),GI50 (COLO 205),GI50 (OVCAR-5),GI50 (SF-268),GI50 (UACC-257),GI50 (CAKI-1),GI50 (U-251),GI50 (HCT-15),GI50 (SK-OV-3),GI50 (NCI-H23),GI50 (Malme-3M)
O=C1c2ccccc2-c2c1c(-c1cccc(Br)c1)nc1ccc3ccccc3c21,> 100 µM (inactive),> 100 µM (inactive),> 100 µM (inactive),> 100 µM (inactive),> 100 µM (inactive),> 100 µM (inactive),> 100 µM (inactive),> 100 µM (inactive),> 100 µM (inactive),> 100 µM (inactive),> 100 µM (inactive),> 100 µM (inactive),> 100 µM (inactive),> 100 µM (inactive),> 100 µM (inactive),> 100 µM (inactive),> 100 µM,> 100 µM (inactive),> 100 µM (inactive),> 100 µM (inactive)
C=C1CCCC2[C@](C)(CC3=C(Cl)C(=O)C=C(OC)C3=O)C(C)CC[C@]12C (stereo not given in full),5.27 µM (inactive),6.64 µM (inactive),5.77 µM (inactive),2.33 µM (inactive),3.99 µM (inactive),1.38 µM (inactive),9.12 µM (inactive),1.49 µM (inactive),8.63 µM (inactive),5 µM (inactive),3.37 µM (inactive),2.94 µM (inactive),5.09 µM (inactive),5.89 µM (inactive),3.39 µM (inactive),3.44 µM (inactive),3.46 µM,20.7 µM (inactive),4.49 µM (inactive),8.18 µM (inactive)
O=C1N[C@@H]2c3c(csc3Br)C(=O)[C@@H]2O1,51.9 µM (inactive),46.5 µM (inactive),42.5 µM (inactive),33.5 µM (inactive),96.4 µM (inactive),19 µM (inactive),17.9 µM (inactive),32.6 µM (inactive),43.4 µM (inactive),38.5 µM (inactive),35 µM (inactive),74 µM (inactive),27 µM (inactive),22.4 µM (inactive),20.8 µM (inactive),24.2 µM (inactive),31.5 µM,90.4 µM (inactive),41.7 µM (inactive),32 µM (inactive)
C[n+]1c(-c2ccc(/C=C/C=N\NC(=O)c3ccc(C(=O)N/N=C\C=C\c4ccc(-c5cn6ccccc6[n+]5C)cc4)cc3)cc2)cn2ccccc21,74.1 µM (inactive),> 100 µM (inactive),> 100 µM (inactive),> 100 µM (inactive),> 100 µM (inactive),> 68.7 µM (inactive),> 54.7 µM (inactive),> 94.8 µM (inactive),> 100 µM (inactive),38.2 µM (inactive),> 100 µM (inactive),> 100 µM (inactive),> 100 µM (inactive),> 100 µM (inactive),38.7 µM (inactive),44.7 µM (inactive),> 100 µM,> 100 µM (inactive),71.4 µM (inactive),> 100 µM (inactive)
Cc1cc(S(=O)(=O)NC2=NNC(C)CN2)c(S)cc1Cl (stereo not given),37.9 µM (inactive),21 µM (inactive),80.5 µM (inactive),43.9 µM (inactive),33.4 µM (inactive),18.4 µM (inactive),37.3 µM (inactive),35.8 µM (inactive),54.2 µM (inactive),49.3 µM (inactive),> 100 µM (inactive),93.3 µM (inactive),15.9 µM (inactive),> 100 µM (inactive),56.8 µM (inactive),39.2 µM (inactive),32.1 µM,> 100 µM (inactive),48.6 µM (inactive),16.7 µM (inactive)
COc1ccc(-c2nc(SCC(=O)N/N=C/c3ccc(O)c(OC)c3)[nH]c2-c2ccc(OC)cc2)cc1,34.9 µM (inactive),17.3 µM (inactive),19.1 µM (inactive),21.4 µM (inactive),31.8 µM (inactive),22.8 µM (inactive),17.7 µM (inactive),17.9 µM (inactive),23.2 µM (inactive),22.1 µM (inactive),19.8 µM (inactive),27.8 µM (inactive),54.6 µM (inactive),25.5 µM (inactive),54.3 µM (inactive),19.7 µM (inactive),24.2 µM,29.4 µM (inactive),21.9 µM (inactive),37.8 µM (inactive)
O=c1c2ccccc2nc(-c2ccccc2)n1/N=C/c1ccccc1[N+](=O)[O-],> 100 µM (inactive),74.5 µM (inactive),> 74.8 µM (inactive),19.9 µM (inactive),16.7 µM (inactive),> 100 µM (inactive),> 100 µM (inactive),> 78.2 µM (inactive),> 91.2 µM (inactive),31.3 µM (inactive),> 100 µM (inactive),> 100 µM (inactive),16.3 µM (inactive),> 100 µM (inactive),> 100 µM (inactive),16.1 µM (inactive),> 100 µM,19.6 µM (inactive),15.3 µM (inactive),> 100 µM (inactive)
COc1cccc2cc(C(=O)NC34CC5CC(CC(C5)C3)C4)c(=N)oc12,64.7 µM (inactive),> 95.1 µM (inactive),> 100 µM (inactive),> 34.3 µM (inactive),> 86.1 µM (inactive),> 52.8 µM (inactive),> 54.2 µM (inactive),13.2 µM (inactive),> 89.7 µM (inactive),> 80.7 µM (inactive),58.3 µM (inactive),> 100 µM (inactive),78.9 µM (inactive),> 89.3 µM (inactive),99.5 µM (inactive),55.3 µM (inactive),49.8 µM,58.6 µM (inactive),> 100 µM (inactive),> 86.5 µM (inactive)
Cc1cc(S(=O)(=O)n2ccnc2Oc2cccc(Cl)c2)c(SSc2cc(Cl)c(C)cc2S(=O)(=O)n2ccnc2Oc2cccc(Cl)c2)cc1Cl,7.06 µM (inactive),7.66 µM (inactive),8.87 µM (inactive),4.54 µM (inactive),3.1 µM (inactive),30 µM (inactive),20.7 µM (inactive),3.21 µM (inactive),7.8 µM (inactive),4.3 µM (inactive),2.57 µM (inactive),10.4 µM (inactive),7.43 µM (inactive),8.09 µM (inactive),10.9 µM (inactive),3.18 µM (inactive),8.67 µM,12.4 µM (inactive),6.32 µM (inactive),5.74 µM (inactive)
COC(=O)C1=C(C)NC(C)=C(C(=O)OC)C1c1ccccc1NO,> 100 µM (inactive),> 100 µM (inactive),> 100 µM (inactive),> 100 µM (inactive),> 100 µM (inactive),40 µM (inactive),> 100 µM (inactive),> 100 µM (inactive),> 100 µM (inactive),> 100 µM (inactive),> 100 µM (inactive),> 100 µM (inactive),> 100 µM (inactive),> 100 µM (inactive),> 100 µM (inactive),> 100 µM (inactive),> 100 µM,> 100 µM (inactive),> 100 µM (inactive),> 100 µM (inactive)
COC(=O)C1C(OC(=O)c2ccccc2)CC2CCC1N2C(N)=O (stereo not given),> 100 µM (inactive),> 100 µM (inactive),> 100 µM (inactive),> 100 µM (inactive),> 100 µM (inactive),> 100 µM (inactive),> 100 µM (inactive),> 100 µM (inactive),> 100 µM (inactive),> 100 µM (inactive),> 100 µM (inactive),> 100 µM (inactive),> 100 µM (inactive),> 100 µM (inactive),> 100 µM (inactive),> 100 µM (inactive),> 100 µM,> 100 µM (inactive),> 100 µM (inactive),> 100 µM (inactive)
CCOC(=O)c1c(Nc2ccccc2)sc2cccnc12,3.24 µM (inactive),17.7 µM (inactive),9.18 µM (inactive),1.43 µM (inactive),21.9 µM (inactive),18.2 µM (inactive),3.24 µM (inactive),7.76 µM (inactive),2.25 µM (inactive),18.7 µM (inactive),0.853 µM (active),12.4 µM (inactive),29.9 µM (inactive),5.35 µM (inactive),37.2 µM (inactive),2.43 µM (inactive),21.7 µM,36 µM (inactive),30.3 µM (inactive),30.3 µM (inactive)
O=C(O)C(Cl)(c1ccccc1)c1ccccc1,> 100 µM (inactive),> 100 µM (inactive),> 100 µM (inactive),> 100 µM (inactive),> 100 µM (inactive),> 100 µM (inactive),> 100 µM (inactive),> 100 µM (inactive),> 100 µM (inactive),> 100 µM (inactive),> 100 µM (inactive),> 100 µM (inactive),> 100 µM (inactive),> 100 µM (inactive),> 100 µM (inactive),> 100 µM (inactive),> 100 µM,> 100 µM (inactive),> 100 µM (inactive),> 100 µM (inactive)
C#CCn1c(I)cc2c(c1=O)COC(=O)[C@]2(O)CC,> 100 µM (inactive),> 100 µM (inactive),> 100 µM (inactive),> 100 µM (inactive),> 100 µM (inactive),> 100 µM (inactive),> 100 µM (inactive),> 100 µM (inactive),> 100 µM (inactive),> 100 µM (inactive),> 100 µM (inactive),> 100 µM (inactive),> 100 µM (inactive),> 100 µM (inactive),> 100 µM (inactive),> 100 µM (inactive),> 100 µM,> 100 µM (inactive),> 100 µM (inactive),> 100 µM (inactive)
